Measured values as given in patent US8748108B2, “Biomarkers for identifying patient classes” (AbbVie Inc., priority 2006, dated 2014).

Key:
M30 = test: phase I study, serum M30 (caspase-cleaved CK18); format: in vivo, human
Protocol: Blood samples for circulating tumor cells (CTCs) were collected at screening, C1D14, C2D14, and at the end of study treatment. Samples for the plasma marker Pro-GRP were collected at screening, C1D14, C2D14, and at the end of study. Samples for serum marker M30 were collected at screening, pre-dose, 6 and 24 hours post-dose on C1D-3 (for 14/21 day dosing) or lead-in day 2 for 21/21 day dosing). Samples were also collected on C1D14; pre-dose and 6 hours post-dose on C2D1; C2D14; end of cycle 4; and every 3rd cycle thereafter and at the final visit for all subjects.
The CTC were analyzed via the CellSearch system (Veridex, Raritan, N.J.). […] Pro-GRP was measured using ARCHITECT ELISA kits (Abbott Diagnostics, Abbott Park, Ill.). Serum samples were analyzed for M30 and M65 (Peviva) using previously described assays validated to good clinical laboratory practice (Cummings J, Ward T H, LaCasse E, et al: Validation of pharmacodynamic assays to evaluate the clinical efficacy of an antisense compound (AEG 35156) targeted to the X-linked inhibitor of apoptosis protein XIAP. Br J Cancer 92:532-8, 2005; and Cummings J, Ranson M, Lacasse E, et al: Method validation and preliminary qualification of pharmacodynamic biomarkers employed to evaluate the clinical efficacy of an antisense compound (AEG35156) targeted to the X-linked inhibitor of apoptosis protein XIAP. […]

[1] = tested on: relapsed or refractory SCLC; test: phase 2 study, efficacy (RECIST, PFS, OS); format: in vivo, human
Excerpt: Eligible candidates for the phase 2 portion of this study (NCT00445198) were adults with histologically or cytologically confirmed SCLC, extensive stage, with progressive disease after at least one prior chemotherapy regimen (any number of prior therapies were allowed). […] Patients were excluded if they had underlying or predisposing condition of bleeding (history of non-chemotherapy induced thrombocytopenia with bleeding within 1 year, active peptic ulcer or hemorrhagic esophagitis/gastritis, active immune thrombocytopenic purpura, etc.). This study was conducted according to the Declaration of Helsinki and with approval from Institutional Review Boards of all participating study sites. All participants provided written informed consent before participating. The phase 2 component of this clinical trial was an open-label, single arm study of patients with recurrent and progressive SCLC after at least one prior therapy. Based on the dose and schedule determined in phase 1 (Example 3), patients were treated with navitoclax 150 mg daily for 1 week, and 325 mg daily thereafter. Cycle duration was defined as 21 days. Subjects could remain on therapy indefinitely, until disease progression or intolerable toxicity. […] New guidelines to evaluate the response to treatment in solid tumors. European Organization for Research and Treatment of Cancer, National Cancer Institute of the United States, National Cancer Institute of Canada. […] Additional efficacy variables included PFS and OS. All subjects enrolled were included in the analyses. Descriptive statistics were used to summarize demographic variables. Progression free survival and overall survival were computed using Kaplan-Meier methodology and 95% confidence intervals were provided. Progression free survival (PFS) was defined as the number of days from the date the subject started the study drug to the date the subject experienced an event of disease progression, or if progression was not experienced, then the date of death if the death occurred within 42 days (length of time between tumor assessments). Overall survival (OS) was defined as the number of days from the date the subject started the study drug to the date of the subject's death. […] Correlations between median BCL2 copy number and pro-GRP were performed by the Pearson correlation; M30 and CTC change from baseline comparisons among Pro-GRP groups were performed by one-way ANOVA using the JMP 8.0 statistical software. Optimized thresholds for the tumor markers were obtained using BATTing (Bootstrapping and Aggregating Thresholds from Trees) method (See, […]., Bagging Predictors. Machine Learning 26:123-140, 1996, fully incorporated herein by reference). Briefly, BATTing uses a tree-based model for threshold estimation. However, a single tree may be unstable and not robust enough against small perturbations in the distribution of the data. In addition, single tree-based models are known be prone to overfitting (that is, it is over-specified for training data) and have poor prediction power. Those issues are addressed in BATTing by aggregating the thresholds from multiple trees to get a more robust estimate. Each tree is built using a bootstrap random sample drawn from the original population and provides its own cutoff. The final estimate of the threshold is calculated as the median from the distribution of cutoffs generated from the multiple trees. This procedure was implemented using the R statistical software (available online from the R project). Several exploratory correlative biomarkers were included in this study, including both CTC enumeration and plasma protein markers associated with small cell lung cancer. The biomarker analysis included all phase II patients and, to increase the sample size, patients with SCLC and those dosed with >325 mg navitoclax on the phase I portion of this study were also included in the analysis. […]

[2] = baseline CYFRA 21.1 above 2.3 ng/ml
[3] = baseline CYFRA 21.1 below 2.3 ng/ml

## CC1(C)CCC(c2ccc(Cl)cc2)=C(CN2CCN(c3ccc(C(=O)NS(=O)(=O)c4ccc(NC(CCN5CCOCC5)CSc5ccccc5)c(S(=O)(=O)C(F)(F)F)c4)cc3)CC2)C1 (stereo in doubt) [navitoclax, N-(4-(4-(2-(4-chlorophenyl)-5,5-dimethyl-1-cyclohex-1-en-1-yl)methyl)pip-erazin-1-yl)benzoyl)-4-(((1R)-3-(morpholin-4-yl)-1-((phenylsulfanyl)methyl)propyl)amino)-3-((trifluoromethyl)sulfonyl)benzenesulfonamide]
M30; in most instances
  time of rise in M30 following the first dose: ≤ 6 h
M30; serum, cycle 1, post first exposure
  circulating M30: dose-dependent transient increase in circulating M30
[1]; baseline CTC above 12/7.5 ml
  Median OS Above threshold: 67 (17) D
  Median PFS Above threshold: 46 (15) D
[1]; baseline CTC below 12/7.5 ml
  Median PFS Below threshold: 63 (14) D
[1]; [2]
  Median OS Above threshold: 67 (19) D
  Median PFS Above threshold: 44 (19) D
[1]; [3]
  Median OS Below threshold: 242 (20) D
  Median PFS Below threshold: 53 (20) D
[1]; baseline NSE above 15 ng/ml
  Median OS Above threshold: 72 (24) D
  Median PFS Above threshold: 44 (24) D
[1]; baseline NSE below 15 ng/ml
  Median OS Below threshold: 242 (15) D
  Median PFS Below threshold: 55 (15) D
[1]; patients above thresholds for both NSE and CYFRA (poor prognosis), n=15
  median OS: 61 days
[1]; patients above thresholds for both NSE and CYFRA (poor prognosis), n=16
  median PFS: 41 days
[1]; patients not above both NSE and CYFRA thresholds, n=18
  median OS: 242 days
[1]; patients not above both NSE and CYFRA thresholds, n=23
  median PFS: 55 days
[1]; phase 2, 39 patients
  Median progression-free survival (PFS): 1.5 months
  best response of disease progression (PD): 41%
  confirmed partial response (PR): 2.6%
  inevaluable for response: 33.3%
  median overall survival (OS): 3.2 months
  stable disease (SD) as best response: 23.1%
[1]; phase 2, N = 39
  Best response PD, N (%): 16 (41.0) N (%)
  Best response PR, N (%): 1 (2.6) N (%)
  Best response SD, N (%): 9 (23.1) N (%)
  Median OS, mo (95% CI): 3.2 (2.3, 8.1) mo
  ORR, % (95% CI): 2.6 (0.1, 13.5) %
[1]; phase 2, N = 39, 150 mg daily 1 week then 325 mg daily
  Median PFS, mo (95% CI): 1.5 (1.4, 1.7) mo
[1]; phase 2, N = 39, baseline tumor data only
  Best response inevaluable, N (%): 13 (33.3) N (%)
